Patent US9776997B2, “3-aryl-substituted imidazo[1,2-A]pyridines and their use” (Bayer Pharma Aktiengesellschaft, priority 2013, dated 2017)

Target: T1, recombinant guanylate cyclase reporter cell line (Rattus norvegicus, UniProt P19686+P20595)
T1 construct: expressed in transfected cells; host or cells: recombinant reporter cell line
T1 sequence (P19686 1-690): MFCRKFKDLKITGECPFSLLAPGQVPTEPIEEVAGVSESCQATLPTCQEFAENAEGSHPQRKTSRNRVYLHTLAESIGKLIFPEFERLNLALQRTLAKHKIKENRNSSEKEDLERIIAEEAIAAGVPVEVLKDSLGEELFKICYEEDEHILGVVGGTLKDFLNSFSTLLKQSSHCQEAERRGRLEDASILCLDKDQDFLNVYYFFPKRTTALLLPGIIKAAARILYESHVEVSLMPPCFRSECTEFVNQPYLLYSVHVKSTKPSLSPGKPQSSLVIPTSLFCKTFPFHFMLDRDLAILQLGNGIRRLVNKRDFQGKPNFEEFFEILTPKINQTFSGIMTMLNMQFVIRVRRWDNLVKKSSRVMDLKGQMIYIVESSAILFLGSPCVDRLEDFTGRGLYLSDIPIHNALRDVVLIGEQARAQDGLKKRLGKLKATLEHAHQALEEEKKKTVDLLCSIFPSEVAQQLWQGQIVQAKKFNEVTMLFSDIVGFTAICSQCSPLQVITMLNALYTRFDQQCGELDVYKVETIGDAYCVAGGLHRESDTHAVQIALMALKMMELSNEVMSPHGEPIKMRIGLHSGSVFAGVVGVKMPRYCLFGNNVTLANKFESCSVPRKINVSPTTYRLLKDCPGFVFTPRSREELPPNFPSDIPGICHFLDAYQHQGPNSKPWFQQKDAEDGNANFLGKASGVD
T1 sequence (P20595 1-619): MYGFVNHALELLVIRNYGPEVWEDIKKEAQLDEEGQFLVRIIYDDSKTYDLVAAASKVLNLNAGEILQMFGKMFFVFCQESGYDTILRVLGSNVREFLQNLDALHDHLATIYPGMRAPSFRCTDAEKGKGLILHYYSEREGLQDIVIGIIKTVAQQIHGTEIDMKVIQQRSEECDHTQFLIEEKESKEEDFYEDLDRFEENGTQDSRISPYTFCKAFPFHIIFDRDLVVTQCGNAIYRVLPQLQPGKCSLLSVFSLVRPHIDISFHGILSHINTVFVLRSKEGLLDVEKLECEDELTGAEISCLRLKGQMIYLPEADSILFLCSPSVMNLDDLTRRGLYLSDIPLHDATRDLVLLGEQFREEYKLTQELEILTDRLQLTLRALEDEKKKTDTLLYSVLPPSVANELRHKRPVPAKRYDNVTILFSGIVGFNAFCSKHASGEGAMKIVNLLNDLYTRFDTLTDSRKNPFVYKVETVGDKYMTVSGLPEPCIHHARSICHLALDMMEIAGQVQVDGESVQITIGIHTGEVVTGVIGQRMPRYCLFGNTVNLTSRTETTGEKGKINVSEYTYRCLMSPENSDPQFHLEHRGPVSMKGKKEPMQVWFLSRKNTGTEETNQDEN
Assay: Effect on a recombinant guanylate cyclase reporter cell line
Assay type: cell-based
Conditions: MEC = minimum effective concentration; in some cases mean values for individual determinations
Description: B-2. Effect on a Recombinant Guanylate Cyclase Reporter Cell Line
The cellular effect of the inventive compounds is determined using a recombinant guanylate cyclase reporter cell line, as described in F. Wunder et al., Anal. Biochem. 339, 104-112 (2005).
Representative MEC values (MEC=minimum effective concentration) for the inventive compounds are shown in the table below (in some cases as mean values for individual determinations): […]

| MEC | SMILES |
| --- | --- |
| 1.0 µM | Cc1cc(OCc2c(F)cccc2F)c2nc(C)c(-c3cnn(C(C)CC(=O)O)c3)n2c1 (racemic) [Example 110, rac-3-(4-{8-[(2,6-difluorobenzyl)oxy]-2,6-dimethylimidazo[1,2-a]pyridin-3-yl}-1H-pyrazol-1-yl)butanoic acid] |
| 1.0 µM | CCN(CC)CCNC(=O)CC(C)n1cc(-c2c(C)nc3c(OCc4c(F)cccc4F)cc(C)cn23)cn1 (racemic) [Example 112, rac-N-[2-(Diethylamino)ethyl]-3-(4-{8-[(2,6-difluorobenzyl)oxy]-2,6-dimethylimidazo[1,2-a]pyridin-3-yl}-1H-pyrazol-1-yl)butanamide] |
| 0.065 µM | Cc1nc2c(OCc3c(F)cccc3F)cccn2c1-c1cnn(Cc2ccccc2)c1 [Example 1, 3-(1-Benzyl-1H-pyrazol-4-yl)-8-[(2,6-difluorobenzyl)oxy]-2-methylimidazo[1,2-a]pyridine] |
| 0.1 µM | CC(=O)c1cccc(-c2c(C)nc3c(OCc4c(F)cccc4F)cccn23)c1 [Example 2, 1-(3-{8-[(2,6-difluorobenzyl)oxy]-2-methylimidazo[1,2-a]pyridin-3-yl}phenyl)ethanone] |
| 0.1 µM | Cc1cc(-c2c(C)nc3c(OCc4c(F)cccc4F)cccn23)ccn1 [Example 3, 8-[(2,6-difluorobenzyl)oxy]-2-methyl-3-(2-methylpyridin-4-yl)imidazo[1,2-a]pyridine] |
| 0.2 µM | CC(=O)Nc1cccc(-c2c(C)nc3c(OCc4c(F)cccc4F)cccn23)c1 [Example 4, N-(3-{8-[(2,6-difluorobenzyl)oxy]-2-methylimidazo[1,2-a]pyridin-3-yl}phenyl)acetamide] |
| 0.2 µM | CCN(C)Cc1cccc(-c2c(C)nc3c(OCc4c(F)cccc4F)cccn23)c1 [Example 5, N-(3-{8-[(2,6-difluorobenzyl)oxy]-2-methylimidazo[1,2-a]pyridin-3-yl}benzyl)-N-methylethanamine] |
| 0.1 µM | CCS(=O)(=O)c1cccc(-c2c(C)nc3c(OCc4c(F)cccc4F)cccn23)c1 [Example 6, 8-[(2,6-difluorobenzyl)oxy]-3-[3-(ethylsulphonyl)phenyl]-2-methylimidazo[1,2-a]pyridine] |
| 0.1 µM | Cc1nc2c(OCc3c(F)cccc3F)cccn2c1-c1cccc(C(N)=O)c1 [Example 7, 3-{8-[(2,6-difluorobenzyl)oxy]-2-methylimidazo[1,2-a]pyridin-3-yl}benzamide] |
| 0.1 µM | Cc1nc2c(OCc3c(F)cccc3F)cccn2c1-c1cccc(O)c1 [Example 8, 3-{8-[(2,6-difluorobenzyl)oxy]-2-methylimidazo[1,2-a]pyridin-3-yl}phenol] |
| 0.3 µM | Cc1nc2c(OCc3c(F)cccc3F)cccn2c1-c1ccc(C(=O)NC2CC2)cc1 [Example 9, N-cyclopropyl-4-{8-[(2,6-difluorobenzyl)oxy]-2-methylimidazo[1,2-a]pyridin-3-yl}benzamide] |
| 1.0 µM | CCOc1ccc(-c2c(C)nc3c(OCc4c(F)cccc4F)cccn23)cc1 [Example 10, 8-[(2,6-difluorobenzyl)oxy]-3-(4-ethoxyphenyl)-2-methylimidazo[1,2-a]pyridine] |
| 3.0 µM | Cc1nc2c(OCc3c(F)cccc3F)cccn2c1-c1ccnn1C [Example 11, 8-[(2,6-difluorobenzyl)oxy]-2-methyl-3-(1-methyl-1H-pyrazol-5-yl)imidazo[1,2-a]pyridine] |
| 0.1 µM | Cc1cc(-c2c(C)nc3c(OCc4c(F)cccc4F)cccn23)cnc1Cl [Example 12, 3-(6-chloro-5-methylpyridin-3-yl)-8-[(2,6-difluorobenzyl)oxy]-2-methylimidazo[1,2-a]pyridine] |
| 0.3 µM | Cc1nc2c(OCc3c(F)cccc3F)cccn2c1-c1cccc(Br)c1 [Example 13, 3-(3-bromophenyl)-8-[(2,6-difluorobenzyl)oxy]-2-methylimidazo[1,2-a]pyridine] |
| 0.3 µM | Cc1nc2c(OCc3c(F)cccc3F)cccn2c1-c1ccsc1 [Example 14, 8-[(2,6-difluorobenzyl)oxy]-2-methyl-3-(3-thienyl)imidazo[1,2-a]pyridine] |

| MEC | SMILES |
| --- | --- |
| 0.065 µM | Cc1nc2c(OCc3c(F)cccc3F)cccn2c1-c1cccc(CN2CCCC2)c1 [Example 15, 8-[(2,6-difluorobenzyl)oxy]-2-methyl-3-[3-(pyrrolidin-1-ylmethyl)phenyl]imidazo[1,2-a]pyridine] |
| 1.0 µM | Cc1nc2c(OCc3c(F)cccc3F)cccn2c1-c1ccc(F)cc1 [Example 16, 8-[(2,6-difluorobenzyl)oxy]-3-(4-fluorophenyl)-2-methylimidazo[1,2-a]pyridine] |
| 1.0 µM | Cc1nc2c(OCc3c(F)cccc3F)cccn2c1-c1ccc(C#N)cc1 [Example 17, 4-{8-[(2,6-difluorobenzyl)oxy]-2-methylimidazo[1,2-a]pyridin-3-yl}benzonitrile] |
| 1.0 µM | CCOC(=O)c1cccc(-c2c(C)nc3c(OCc4c(F)cccc4F)cccn23)c1 [Example 18, Ethyl 3-{8-[(2,6-difluorobenzyl)oxy]-2-methylimidazo[1,2-a]pyridin-3-yl}benzoate] |
| 1.0 µM | Cc1nc2c(OCc3c(F)cccc3F)cccn2c1-c1cnc2ccccc2c1 [Example 19, 3-{8-[(2,6-difluorobenzyl)oxy]-2-methylimidazo[1,2-a]pyridin-3-yl}quinoline] |
| 1.0 µM | Cc1nc2c(OCc3c(F)cccc3F)cccn2c1-c1cccc(CN2CCOCC2)c1 [Example 21, 8-[(2,6-difluorobenzyl)oxy]-2-methyl-3-[3-(morpholin-4-ylmethyl)phenyl]imidazo[1,2-a]pyridine] |
| 1.0 µM | CCCOc1ccc(-c2c(C)nc3c(OCc4c(F)cccc4F)cccn23)cn1 [Example 22, 8-[(2,6-difluorobenzyl)oxy]-2-methyl-3-(6-propoxypyridin-3-yl)imidazo[1,2-a]pyridine] |
| 1.0 µM | Cc1nc2c(OCc3c(F)cccc3F)cccn2c1-c1ccc2c(c1)COC2=O [Example 23, 5-{8-[(2,6-difluorobenzyl)oxy]-2-methylimidazo[1,2-a]pyridin-3-yl}-2-benzofuran-1(3H)-one] |
| 1.0 µM | Cc1nc2c(OCc3c(F)cccc3F)cccn2c1-c1cccc(OC(F)(F)F)c1 [Example 24, 8-[(2,6-difluorobenzyl)oxy]-2-methyl-3-[3-(trifluormethoxy)phenyl]imidazo[1,2-a]pyridine] |
| 1.0 µM | COc1ccc(-c2c(C)nc3c(OCc4c(F)cccc4F)cccn23)cc1 [Example 25, 8-[(2,6-difluorobenzyl)oxy]-3-(4-methoxyphenyl)-2-methylimidazo[1,2-a]pyridine] |
| 1.0 µM | Cc1nc2c(OCc3c(F)cccc3F)cccn2c1-c1ccc(CN(C)C)cc1 [Example 26, 1-(4-{8-[(2,6-difluorobenzyl)oxy]-2-methylimidazo[1,2-a]pyridin-3-yl}phenyl)-N,N-dimethylmethanamine] |
| 1.0 µM | COCCN(C)Cc1cc(-c2c(C)nc3c(OCc4c(F)cccc4F)cccn23)ccc1OC [Example 27, N-(5-{8-[(2,6-difluorobenzyl)oxy]-2-methylimidazo[1,2-a]pyridin-3-yl}-2-methoxybenzyl)-2-methoxy-N-methylethanamine] |
| 1.0 µM | CCN(C)Cc1ccc(OC)c(-c2c(C)nc3c(OCc4c(F)cccc4F)cccn23)c1 [Example 28, N-(3-{8-[(2,6-difluorobenzyl)oxy]-2-methylimidazo[1,2-a]pyridin-3-yl}-4-methoxybenzyl)-N-methylethanamine] |
| 1.0 µM | Cc1nc2c(OCc3c(F)cccc3F)cccn2c1-c1ccncc1 [Example 29, 8-[(2,6-difluorobenzyl)oxy]-2-methyl-3-(pyridin-4-yl)imidazo[1,2-a]pyridine] |
| 3.0 µM | Cc1ccc(-c2c(C)nc3c(OCc4c(F)cccc4F)cccn23)cc1 [Example 30, 8-[(2,6-difluorobenzyl)oxy]-2-methyl-3-(4-methylphenyl)imidazo[1,2-a]pyridine] |
